{
  "source": "patent US20100151021A1",
  "about": "(priority 2008, published 2010)",
  "key": {"[1]": {"test": "Solubility of Melperone HCl in media", "format": "physicochemical", "conditions": "for solubility: phosphate buffer, aqueous buffer"}, "[2]": {"conditions": "clinical; cited from earlier work"}, "[3]": {"conditions": "cited from earlier work"}, "[4]": {"tested_on": "psychosis in patients with PD", "conditions": "cited from earlier work"}, "[5]": {"tested_on": "psychosis associated with PD", "conditions": "initial open-label studies; cited from earlier work"}},
  "data": [
    {"smiles": "CC1CCN(CCCC(=O)c2ccc(F)cc2)CC1.Cl", "note": "[Melperone HCl, 1-(4-fluorophenyl)-4-(4-methyl-1-piperidinyl)-1-butanone hydrochloride]", "values": [
      {"measurement": "solubility", "setting": "[1]; pH 7.0 (phosphate)", "result": "> 100", "unit": "mg/mL"},
      {"measurement": "solubility", "setting": "[1]; pH 7.8 (phosphate)", "result": 25.6, "unit": "mg/mL"}
    ]},
    {"smiles": "CC1CCN(CCCC(=O)c2ccc(F)cc2)CC1", "note": "[melperone]", "values": [
      {"measurement": "Solubility in words", "setting": "[1]; aqueous buffers at acidic to neutral pH conditions", "result": "freely soluble"},
      {"measurement": "Solubility in words", "setting": "[1]; higher pH values (above pH=7.5)", "result": "poorly soluble"},
      {"measurement": "incidence of extrapyramidal side effect (EPS) or tardive dyskinesia", "setting": "[2]", "result": "low incidence"},
      {"measurement": "mean Tmax", "setting": "[3]; oral tablet administration", "result": "1.5 to 3.0", "unit": "h"},
      {"measurement": "absolute oral bioavailability", "setting": "[3]; oral", "result": "50-70%"},
      {"measurement": "time over which efficacy was maintained", "setting": "[4]; mean daily dose of 37.5 mg", "result": 2, "unit": "years"},
      {"measurement": "efficacy in the treatment of psychosis", "setting": "[4]; patients with PD", "result": "has shown efficacy"},
      {"measurement": "onset of efficacy", "setting": "[4]; patients with PD", "result": "within a week"}
    ]},
    {"smiles": "OCCOCCN1CCN(C2=Nc3ccccc3Sc3ccccc32)CC1", "note": "[quetiapine]", "values": [
      {"measurement": "efficacy in psychosis associated with PD", "setting": "[5]", "result": "has shown efficacy"},
      {"measurement": "patients with worsening of motor symptoms of PD", "setting": "[5]", "result": "up to 30%"}
    ]}
  ]
}
